# Patent US7964531B2, “3-phenoxy-4-pyridazinol derivatives and herbicidal composition containing the same” (Mitsui Chemicals Agro, Inc., priority 2001, dated 2011)
row,SMILES,melting point
1,"COC(=O)c1ccc(OC)c(Oc2nnc(Cl)cc2O)c1 [Compound No. 2574, Methyl 3-[(6-chloro-4-hydroxy-3-pyridazinyl)oxy]-4-methoxybenzoate]",115 to 123 °C
2,"C=C(C)c1cccc(C)c1Oc1nnc(Cl)cc1O [Compound No. 2577, 6-Chloro-3-(2-isopropenyl-6-methylphenoxy)-4-pyridazinol]",183 to 186 °C
3,"Cc1c(Br)ccc(C2CC2)c1Oc1nnc(Cl)cc1O [Compound No. 2587, 3-(3-Bromo-6-cyclopropyl-2-methylphenoxy)-6-chloro-4-pyridazinol]",234 to 235 °C
4,"Cc1c([N+](=O)[O-])ccc(C2CC2)c1Oc1nnc(Cl)cc1O [Compound No. 2589, 6-Chloro-3-(6-cyclopropyl-2-methyl-3-nitrophenoxy)-4-pyridazinol]",140 to 143 °C
5,"Cc1ccc2c(c1Oc1nnc(Cl)cc1O)COC2 [Compound No. 2592, 6-Chloro-3-[(5-methyl-1,3-dihydro-2-benzofuran-4-yl)oxy]-4-pyridazinol]",188 to 200 °C
6,"CCSc1cc(Oc2nnc(Cl)cc2O)c(Br)cc1Br [Compound No. 2596, 6-Chloro-3-[2,4-dibromo-5-(ethylsulfanyl)phenoxy]-4-pyridazinol]",225 to 228 °C
7,"Cc1cc(C)c(F)c(Oc2nnc(Cl)cc2O)c1C [Compound No. 2597, 6-Chloro-3-(2-fluoro-3,5,6-trimethylphenoxy)-4-pyridazinol]",258 to 260 °C
8,"Cc1cc(C)c(Cl)c(Oc2nnc(Cl)cc2O)c1C [Compound No. 2599, 6-Chloro-3-(2-chloro-3,5,6-trimethylphenoxy)-4-pyridazinol]",298 to 300 °C
9,"CCc1c(C)cc(C)c(C)c1Oc1nnc(Cl)cc1O [Compound No. 2601, 6-Chloro-3-(2-ethyl-3,5,6-trimethylphenoxy)-4-pyridazinol]",188 to 195 °C
10,"Cc1cc(C)c([N+](=O)[O-])c(Oc2nnc(Cl)cc2O)c1C [Compound No. 2608, 6-Chloro-3-(2,3,5-trimethyl-6-nitrophenoxy)-4-pyridazinol]",172 to 174 °C
11,"Cc1c(C)c(C)c(Oc2nnc(Cl)cc2O)c(C)c1C [Compound No. 2614, 6-Chloro-3-(2,3,4,5,6-pentamethylphenoxy)-4-pyridazinol]",238 to 240 °C (dec.)
12,"Cc1cccc(C2CC2)c1Oc1nnc(Cl)cc1OC(=O)CC(C)(C)C [Compound No. 2662, 6-Chloro-3-(2-cyclopropyl-6-methylphenoxy)-4-pyridazinyl 3,3-dimethylbutanoate]",91 to 92 °C
13,"C=C(C)C(=O)Oc1cc(Cl)nnc1Oc1c(C)cccc1C1CC1 [Compound No. 2677, 6-Chloro-3-(2-cyclopropyl-6-methylphenoxy)-4-pyridazinyl 2-methylacrylate]",98 to 100 °C
14,"Cc1cccc(C2CC2)c1Oc1nnc(Cl)cc1OC(=O)C(C)(C)Br [Compound No. 2697, 6-Chloro-3-(2-cyclopropyl-6-methylphenoxy)-4-pyridazinyl 2-bromo-2-methylpropanoate]",69 to 71 °C
15,"Cc1cccc(C2CC2)c1Oc1nnc(Cl)cc1OC(=O)C(C)(C)CCl [Compound No. 2703, 6-Chloro-3-(2-cyclopropyl-6-methylphenoxy)-4-pyridazinyl 3-chloro-2,2-dimethylpropanoate]",112 to 115 °C
16,"Cc1ccccc1Oc1nnc(Cl)cc1OC(=O)c1ccccc1C(=O)Oc1cc(Cl)nnc1Oc1ccccc1C [Compound No. 2827, Bis[6-chloro-3-(2-methylphenoxy)-4-pyridazinyl]phthalate]",157 to 158 °C
17,"Cc1cccc(C2CC2)c1Oc1nnc(Cl)cc1OC(=O)c1ccc(C(F)(F)F)cc1 [Compound No. 2988, 6-Chloro-3-(2-cyclopropyl-6-methylphenoxy)-4-pyridazinyl 4-(trifluoromethyl)benzoate]",127 to 128 °C
18,"Cc1cccc(C2CC2)c1Oc1nnc(Cl)cc1OC(=O)c1ccc(C(=O)Oc2cc(Cl)nnc2Oc2c(C)cccc2C2CC2)cc1 [Compound No. 3001, Bis[6-chloro-3-(2-cyclopropyl-6-methylphenoxy)-4-pyridazinyl]terephthalate]",247 to 249 °C
19,"Cc1cccc(C2CC2)c1Oc1nnc(Cl)cc1OC(=O)c1cc(Cl)ccc1Cl [Compound No. 3100, 6-Chloro-3-(2-cyclopropyl-6-methylphenoxy)-4-pyridazinyl 2,5-dichlorobenzoate]",128 to 130 °C
20,"COc1cccc(OC)c1C(=O)Oc1cc(Cl)nnc1Oc1c(C)cccc1C1CC1 [Compound No. 3162, 6-Chloro-3-(2-cyclopropyl-6-methylphenoxy)-4-pyridazinyl 2,6-dimethoxybenzoate]",127 to 128 °C
21,"Cc1cccc(C2CC2)c1Oc1nnc(Cl)cc1OC(=O)c1cc(Cl)cc(Cl)c1 [Compound No. 3226, 6-Chloro-3-(2-cyclopropyl-6-methylphenoxy)-4-pyridazinyl 3,5-dichlorobenzoate]",168 to 174 °C
22,"Cc1cc(C)cc(C(=O)Oc2cc(Cl)nnc2Oc2c(C)cccc2C2CC2)c1 [Compound No. 3243, 6-Chloro-3-(2-cyclopropyl-6-methylphenoxy)-4-pyridazinyl 3,5-dimethylbenzoate]",117 to 119 °C
23,"Cc1cccc(C2CC2)c1Oc1nnc(Cl)cc1OC(=O)c1cccn1C [Compound No. 3282, 6-Chloro-3-(2-cyclopropyl-6-methylphenoxy)-4-pyridazinyl 1-methyl-1H-pyrrole-2-carboxylate]",143 to 144 °C
24,"COc1cscc1C(=O)Oc1cc(Cl)nnc1Oc1c(C)cccc1C1CC1 [Compound No. 3378, 6-Chloro-3-(2-cyclopropyl-6-methylphenoxy)-4-pyridazinyl 4-methoxy-3-thiophenecarboxylate]",146 to 149 °C
25,"Cc1cccc(C2CC2)c1Oc1nnc(Cl)cc1OC(=O)c1cnccc1C(F)(F)F [Compound No. 3462, 6-Chloro-3-(2-cyclopropyl-6-methylphenoxy)-4-pyridazinyl 4-(trifluoromethyl)nicotinate]",92 to 93 °C
26,"Cc1cccc(C2CC2)c1Oc1nnc(Cl)cc1OC(=O)c1cc2ccccc2s1 [Compound No. 3504, 6-Chloro-3-(2-cyclopropyl-6-methylphenoxy)-4-pyridazinyl 1-benzothiophene-2-carboxylate]",105 to 107 °C
27,"Cc1cccc(C2CC2)c1Oc1nnc(Cl)cc1OC(=O)n1c(C)ccc1C [Compound No. 3630, 6-Chloro-3-(2-cyclopropyl-6-methylphenoxy)-4-pyridazinyl 2,5-dimethyl-1H-pyrrole-1-carboxylate]",208 to 210 °C
28,"Cc1cccc(C2CC2)c1Oc1nnc(Cl)cc1OC(=O)n1c2ccccc2c2ccccc21 [Compound No. 3714, 6-Chloro-3-(2-cyclopropyl-6-methylphenoxy)-4-pyridazinyl 9H-carbazole-9-carboxylate]",157 to 159 °C
29,"Cc1cc(OC(=O)c2ccccc2)ccc1Oc1nnc(Cl)cc1OC(=O)c1ccccc1 [Compound No. 3850, 4-{[4-(Benzoyloxy)-6-chloro-3-pyridazinyl]oxy}-3-methylphenyl benzoate]",118 to 120 °C
